Laboratory results from ChEMBL document CHEMBL1145882, “High affinity, bioavailable 3-amino-1,4-benzodiazepine-based gamma-secretase inhibitors” (Bioorg Med Chem Lett, 2003).

Key:
Gamma-secretase = experiment: In vitro inhibition of gamma secretase.; assay type: protein-complex assay, Homo sapiens
[1] = Cmax value at 1 mg/kg po in rat; assay type: ADME, organism-based; set-up: dose 1 mg/kg, route oral; settings: in vivo
[2] = Area under curve at 4 hr in rat; assay type: ADME, organism-based; set-up: time < 4 hr; settings: in vivo
[3] = Cmax value at 5 mg/kg po in rat; assay type: ADME, organism-based; set-up: dose 5 mg/kg, route oral; settings: in vivo
[4] = Cmax value at 5 mg/kg po was determined in rat; assay type: ADME, organism-based; set-up: dose 5 mg/kg, route oral; settings: in vivo
[5] = Bioavailability in rat; assay type: ADME, organism-based; settings: in vivo
[6] = Half life period was determined; assay type: ADME; settings: rat

Row | Structure (SMILES) | IC50 (Gamma-secretase) | further results
1 | C[C@@H](Cc1ccc(F)c(F)c1)C(=O)N[C@H]1N=C(c2ccc3c(c2)CCCC3=O)c2ccccc2N(C)C1=O | 2.2 nM | –
2 | C[C@@H](Cc1ccc(F)c(F)c1)C(=O)N[C@H]1N=C(c2ccc3c(c2)CCN(C)C3=O)c2ccccc2N(C)C1=O | 1880 nM | –
3 | CC(=O)CCN1C(=O)[C@@H](NC(=O)[C@@H](C)Cc2ccc(F)c(F)c2)N=C(c2ccc3c(c2)OCO3)c2ccccc21 | 3.7 nM | –
4 | C[C@@H](Cc1ccc(F)c(F)c1)C(=O)N[C@H]1N=C(c2ccc3c(=O)ccoc3c2)c2ccccc2N(C)C1=O | 1.2 nM | –
5 | C[C@@H](Cc1ccc(F)c(F)c1)C(=O)N[C@H]1N=C(c2ccc3c(=O)[nH]ccc3c2)c2ccccc2N(C)C1=O | 0.2 nM | –
6 | COC(=O)CN1C(=O)[C@@H](NC(=O)[C@@H](C)Cc2ccc(F)c(F)c2)N=C(c2ccc3c(c2)OCO3)c2ccccc21 | 12.7 nM | –
7 | C[C@@H](Cc1ccc(F)c(F)c1)C(=O)N[C@H]1N=C(c2ccc3c(c2)OCO3)c2ccccc2NC1=O | 1.8 nM | –
8 | C[C@@H](Cc1ccc(F)c(F)c1)C(=O)N[C@H]1N=C(c2ccc3c(c2)OCO3)c2ccccc2N(CCO)C1=O | 0.9 nM | –
9 | C[C@@H](Cc1ccc(F)c(F)c1)C(=O)N[C@H]1N=C(c2ccc3c(c2)CCNC3=O)c2ccccc2N(C)C1=O | 0.3 nM | Cmax [1]: 2 nM; AUC at 4 h [2]: < 0.004 µM·h
10 | C[C@@H](Cc1ccc(F)c(F)c1)C(=O)N[C@H]1N=C(c2ccc3c(c2)OCO3)c2ccccc2N(CC(=O)N(C)C)C1=O | 5.5 nM | –
11 | C[C@@H](Cc1ccc(F)c(F)c1)C(=O)N[C@H]1N=C(c2ccc3c(c2)OC(F)(F)O3)c2ccccc2N(C)C1=O | 28 nM | –
12 | C[C@@H](Cc1ccc(F)c(F)c1)C(=O)N[C@H]1N=C(c2ccc3c(c2)OCO3)c2ccccc2N(C)C1=O | 13.2 nM | AUC at 4 h [2]: 0.09 µM·h; Cmax [3]: 40 nM
13 | C[C@@H](Cc1ccc(F)c(F)c1)C(=O)NC1N=C(c2ccc(C(N)=O)cc2)c2ccccc2N(C)C1=O (stereo partly specified) | 0.49 nM | –
14 | C[C@@H](Cc1ccc(F)c(F)c1)C(=O)N[C@H]1N=C(c2ccc3c(c2)CCC(=O)N3)c2ccccc2N(C)C1=O | 101 nM | –
15 | C[C@@H](Cc1ccc(F)c(F)c1)C(=O)N[C@H]1N=C(c2ccc3c(c2)CCC3=O)c2ccccc2N(C)C1=O | 3.6 nM | –
16 | C[C@@H](Cc1ccc(F)c(F)c1)C(=O)N[C@H]1N=C(c2ccc3c(c2)OCO3)c2ccccc2N(CC(N)=O)C1=O | 13.2 nM | Cmax [4]: 900 nM; AUC at 4 h [2]: 2.9 µM·h; bioavailability [5]: 22%; half-life [6]: 84 min
17 | C[C@@H](Cc1ccc(F)c(F)c1)C(=O)N[C@H]1N=C(c2ccc3c(c2)OCCO3)c2ccccc2N(C)C1=O | 4.7 nM | –
18 | CNC(=O)CN1C(=O)[C@@H](NC(=O)[C@@H](C)Cc2ccc(F)c(F)c2)N=C(c2ccc3c(c2)OCO3)c2ccccc21 | 1.8 nM | –
